From patent publication US20140170110A1, “PYRIDIN-2(1H)-ONE DERIVATIVES USEFUL AS MEDICAMENTS FOR THE TREATMENT OF MYELOPROLIFERATIVE DISORDERS, TRANSPLANT REJECTION, IMMUNE-MEDIATED AND INFLAMMATORY DISEASES” (ALMIRALL, S.A., priority 2011, published 2014)

How the values were obtained:
Assay type in all cases: biochemical
human JAK3 (aa 795-1124) = molecular target: T1, human JAK3 (aa 795-1124) (Homo sapiens, UniProt P52333); experiment: In vitro JAK kinase assay (TR-FRET), JAK3; settings: catalytic domain GST-fusion; ATP 0.6 μM; poly (GT)-Biotin 140 nM; 30 minutes at room temperature
T1 construct: JAK3 (aa 795-1124); GST (N); purchased Carna Biosciences; host or cells: baculovirus expression system
Description: (§1) Compounds were screened for their ability to inhibit JAK1, JAK2 and JAK3 using the assays as indicated below.
(§2) The enzymatic activity was assayed using as substrate a biotinylated peptide, poly (GT)-Biotin (CisBio). […] The degree of phosphorylation was detected by TR-FRET (time-resolved fluorescence energy transfer).
(§3) The enzymatic reactions took place for 30 minutes at room temperature. […] Incubate for 3 h and read on Victor 2V spectrofluorometer (PerkinElmer) set to read fluorescence resonance energy transfer.

human JAK2 (aa 826-1132) = molecular target: T2, human JAK2 (aa 826-1132) (Homo sapiens, UniProt O60674); experiment: In vitro JAK kinase assay (TR-FRET), JAK2; settings: catalytic domain GST-fusion; ATP 0.2 μM; poly (GT)-Biotin 20 nM; 30 minutes at room temperature
T2 construct: JAK2 (aa 826-1132); GST (N); purchased Carna Biosciences; host or cells: baculovirus expression system
Description: as §1, §2, §3

human JAK1 (aa 850-1154) = molecular target: T3, human JAK1 (aa 850-1154) (Homo sapiens, UniProt P23458); experiment: In vitro JAK kinase assay (TR-FRET), JAK1; settings: catalytic domain GST-fusion; ATP 3 μM; poly (GT)-Biotin 60 nM; 30 minutes at room temperature
T3 construct: human JAK1 (aa 850-1154); GST (N); purchased Carna Biosciences; host or cells: baculovirus expression system
Description: as §1, §2, §3

T1 sequence (P52333 795-1124): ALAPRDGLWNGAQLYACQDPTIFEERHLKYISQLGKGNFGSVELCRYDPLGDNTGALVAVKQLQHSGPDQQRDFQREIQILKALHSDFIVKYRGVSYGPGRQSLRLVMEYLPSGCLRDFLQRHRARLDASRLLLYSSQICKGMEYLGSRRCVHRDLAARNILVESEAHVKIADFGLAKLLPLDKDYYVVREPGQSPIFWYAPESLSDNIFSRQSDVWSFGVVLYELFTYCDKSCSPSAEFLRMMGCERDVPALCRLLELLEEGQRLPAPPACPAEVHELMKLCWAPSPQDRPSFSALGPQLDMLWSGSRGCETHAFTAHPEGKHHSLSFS
T3 sequence (P23458 850-1154): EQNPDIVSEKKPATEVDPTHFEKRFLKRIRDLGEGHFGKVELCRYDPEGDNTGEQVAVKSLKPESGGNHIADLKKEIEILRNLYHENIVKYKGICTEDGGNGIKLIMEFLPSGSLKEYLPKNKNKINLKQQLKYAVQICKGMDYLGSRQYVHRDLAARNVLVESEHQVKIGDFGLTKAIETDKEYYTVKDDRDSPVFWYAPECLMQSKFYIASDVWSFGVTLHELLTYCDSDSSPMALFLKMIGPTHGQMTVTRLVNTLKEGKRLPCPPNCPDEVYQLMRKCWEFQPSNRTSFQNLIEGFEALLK
T2 sequence (O60674 826-1132): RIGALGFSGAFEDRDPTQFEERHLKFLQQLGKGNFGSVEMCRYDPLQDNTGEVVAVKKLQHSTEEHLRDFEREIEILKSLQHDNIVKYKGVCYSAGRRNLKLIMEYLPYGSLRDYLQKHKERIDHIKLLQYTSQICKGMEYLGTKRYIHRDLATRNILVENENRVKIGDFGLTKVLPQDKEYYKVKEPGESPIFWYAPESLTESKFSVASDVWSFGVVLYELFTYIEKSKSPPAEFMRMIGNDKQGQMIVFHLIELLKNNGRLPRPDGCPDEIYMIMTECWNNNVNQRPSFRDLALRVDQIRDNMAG

SMILES | IC50 (human JAK3 (aa 795-1124)) [nM] | IC50 (human JAK2 (aa 826-1132)) [nM] | IC50 (human JAK1 (aa 850-1154)) [nM]
O=c1[nH]cccc1Nc1ncc2c(n1)n(C1CCOCC1)c(=O)n2CCO [Example 46, 7-(2-Hydroxyethyl)-2-(2-oxo-1,2-dihydropyridin-3-ylamino)-9-(tetrahydro-2H-pyran-4-yl)-7H-purin-8(9H)-one] | < 100 | < 100 | 100 to 1000
O=c1[nH]cccc1Nc1ncc2[nH]c(=O)n([C@@H]3CC=Cc4ccccc43)c2n1 [Example 31, (R)-9-(1,2-Dihydronaphthalen-1-yl)-2-(2-oxo-1,2-dihydropyridin-3-ylamino)-7H-purin-8(9H)-one] | < 100 | < 100 | 100 to 1000
O=c1[nH]cccc1Nc1ncc2[nH]c(=O)n([C@@H]3CCCC[C@@H]3CO)c2n1 (relative stereo) [Example 21, 9-(cis-2-(Hydroxymethyl)cyclohexyl)-2-(2-oxo-1,2-dihydropyridin-3-ylamino)-7H-purin-8(9H)-one] | < 100 | < 100 | 100 to 1000
O=c1[nH]cc(C(F)F)cc1Nc1ncc2[nH]c(=O)n(C3CCOCC3)c2n1 [Example 5, 2-(5-(Difluoromethyl)-2-oxo-1,2-dihydropyridin-3-ylamino)-9-(tetrahydro-2H-pyran-4-yl)-7H-purin-8(9H)-one] | < 100 | < 100 | < 100
O=c1[nH]cccc1Nc1ncc2[nH]c(=O)n(C3CCOCC3)c2n1 [Example 1, 2-(2-Oxo-1,2-dihydropyridin-3-ylamino)-9-(tetrahydro-2H-pyran-4-yl)-7H-purin-8(9H)-one] | < 100 | < 100 | 100 to 1000
O=c1[nH]cccc1Nc1ncc2[nH]c(=O)n(C3CCSCC3)c2n1 [Example 12, 2-(2-Oxo-1,2-dihydropyridin-3-ylamino)-9-(tetrahydro-2H-thiopyran-4-yl)-7H-purin-8(9H)-one] | < 100 | < 100 | 100 to 1000
O=c1[nH]cccc1Nc1ncc2[nH]c(=O)n(C3CCCCC3)c2n1 [Example 14, 9-Cyclohexyl-2-(2-oxo-1,2-dihydropyridin-3-ylamino)-7H-purin-8(9H)-one] | < 100 | < 100 | < 100
N#C[C@@H]1CCCC[C@H]1n1c(=O)[nH]c2cnc(Nc3ccc[nH]c3=O)nc21 (relative stereo) [Example 23, trans-2-(8-Oxo-2-(2-oxo-1,2-dihydropyridin-3-ylamino)-7H-purin-9(8H)-yl)cyclo hexanecarbonitrile] | < 100 | < 100 | 100 to 1000
O=c1[nH]cccc1Nc1ncc2[nH]c(=O)n([C@H]3CC[C@@H](n4cncn4)CC3)c2n1 [Example 22, 9-((1s,4s)-4-(1H-1,2,4-Triazol-1-yl)cyclohexyl)-2-(2-oxo-1,2-dihydropyridin-3-ylamino)-7H-purin-8(9H)-one] | < 100 | < 100 | 100 to 1000
CS(=O)(=O)C[C@H]1CC[C@H](n2c(=O)[nH]c3cnc(Nc4ccc[nH]c4=O)nc32)CC1 [Example 39, 9-((1r,4r)-4-(Methylsulfonylmethyl)cyclohexyl)-2-(2-oxo-1,2-dihydropyridin-3-ylamino)-7H-purin-8(9H)-one] | 100 to 1000 | < 100 | 100 to 1000

The remaining lines, values ahead:

IC50 (human JAK3 (aa 795-1124)) [nM] | IC50 (human JAK2 (aa 826-1132)) [nM] | IC50 (human JAK1 (aa 850-1154)) [nM] | SMILES
< 100 | < 100 | 100 to 1000 | O=c1[nH]cccc1Nc1nc2c(cc1F)[nH]c(=O)n2C1CCOCC1 [Example 49, 6-Fluoro-5-(2-oxo-1,2-dihydropyridin-3-ylamino)-3-(tetrahydro-2H-pyran-4-yl)-1H-imidazo[4,5-b]pyridin-2(3H)-one]
< 100 | 100 to 1000 | 100 to 1000 | O=c1[nH]nc(Cl)cc1Nc1ncc2[nH]c(=O)n(C3CCOCC3)c2n1 [Example 54, 2-(6-Chloro-3-oxo-2,3-dihydropyridazin-4-ylamino)-9-(tetrahydro-2H-pyran-4-yl)-7H-purin-8(9H)-one]
< 100 | < 100 | > 1000 | O=c1[nH]cccc1Nc1nc(N2CCOCC2)c2[nH]c(=O)n(C3CCOCC3)c2n1 [Example 50, 6-Morpholino-2-(2-oxo-1,2-dihydropyridin-3-ylamino)-9-(tetrahydro-2H-pyran-4-yl)-7H-purin-8(9H)-one]
100 to 1000 | 100 to 1000 | 100 to 1000 | O=c1[nH]cncc1Nc1ncc2[nH]c(=O)n(C3CCOCC3)c2n1 [Example 51, 2-(6-Oxo-1,6-dihydropyrimidin-5-ylamino)-9-(tetrahydro-2H-pyran-4-yl)-7H-purin-8(9H)-one]
100 to 1000 | < 100 | > 1000 | C[C@H](c1ncc(F)cn1)n1c(=O)[nH]c2cnc(Nc3cnc[nH]c3=O)nc21 [Example 52, (R)-9-(1-(5-Fluoropyrimidin-2-yl)ethyl)-2-(6-oxo-1,6-dihydropyrimidin-5-ylamino)-7H-purin-8(9H)-one]
